Assay results taken from the supplement of paper PMC10307832.

Compound: CCN1C(=O)C2=CC(=C(N=C2N(C1=O)C3CC3)N)C(=O)N
Test: relative viability (nuclei count vs DMSO), 5 days (fraction); higher = more cells survive
How it was run: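 Vehicle-anchored 1536-well plates of lung cancer cell lines, held overnight at 37 °C, were pinned with five library-drug doses (not always all listed) spaced by √10. No medium change followed over the next 5 days, after which the cells were fixed, permeabilised and Hoechst-stained together and imaged at 4×. Nuclei were counted with MetaXpress, and viability is treated-well nuclei over vehicle-well nuclei, taken as a median across plates. Plates passed with control CV below 25% and at least one doubling.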

| Cell Line | relative viability (0.253 µM) | relative viability (0.8 µM) | relative viability (2.53 µM) | relative viability (8 µM) |
| --- | --- | --- | --- | --- |
| 201T | 0.993 | 0.948 | 1.04 | 0.964 |
| A549 | 0.985 | 1.02 | 0.962 | 0.956 |
| A-427 | 1.02 | 0.991 | 1.03 | 1.03 |
| ABC-1 | 0.986 | 0.686 | 1 | 0.841 |
| BEN | 0.952 | 0.885 | 1.11 | 1.02 |
| CAL-12T | 1 | 0.964 | 1.02 | 1.02 |
| COR-L23 | 1.01 | 0.962 | 1.04 | 1.12 |
| COR-L 105 | 0.979 | 0.841 | 0.875 | 0.963 |
| ChaGo-K-1 | 1.12 | 0.949 | 0.973 | 0.924 |
| EKVX | 1.01 | 0.955 | 0.959 | 0.913 |
| EMC-BAC-2 | 1.39 | – | 1.14 | 1.07 |
| EPLC-272H | 0.891 | 0.863 | 0.999 | 1.09 |
| H3255 | 0.995 | 0.906 | 1.01 | 0.929 |
| HARA | 0.975 | 0.927 | 0.947 | 0.918 |
| HCC-15 | 0.943 | 1.02 | 0.994 | 1.03 |
| HCC-44 | 1.01 | 0.958 | 1.03 | 0.972 |
| HCC-78 | 0.947 | 0.939 | 1.04 | 0.994 |
| HCC-366 | 0.981 | 0.968 | 0.996 | 1.03 |
| HCC-827 | 1.1 | 1.02 | 1.03 | 1.01 |

| Cell Line | relative viability (0.253 µM) | relative viability (0.8 µM) | relative viability (2.53 µM) | relative viability (8 µM) |
| --- | --- | --- | --- | --- |
| HOP-62 | 1.01 | 1.03 | 1 | 1.03 |
| LC-2-ad | 0.915 | 0.937 | 1 | 0.977 |
| LCLC-97TM1 | 0.936 | 0.792 | 0.977 | 0.879 |
| LCLC-103H | 1.02 | 0.928 | 0.924 | 0.999 |
| LK-2 | 0.979 | 0.981 | 1.03 | 1.04 |
| LOU-NH91 | 0.838 | 0.921 | 0.996 | 0.944 |
| LU99A | 0.856 | 0.997 | 0.904 | 0.984 |
| LXF-289 | 1.01 | 1.07 | 0.972 | 1.01 |
| NCI-H23 | 0.86 | 0.96 | 0.977 | 0.984 |
| NCI-H322M | 0.959 | 0.929 | 0.984 | 0.996 |
| NCI-H358 | 1.05 | 0.913 | 0.924 | 0.954 |
| NCI-H441 | 1.1 | 1.04 | 0.965 | 1.03 |
| NCI-H460 | 0.976 | 0.989 | 0.967 | 0.972 |
| NCI-H520 | 0.985 | 1.02 | 0.972 | 0.904 |
| NCI-H522 | 0.876 | 0.985 | 0.983 | 0.906 |
| NCI-H596 | 0.933 | 0.984 | 1.06 | 0.971 |
| NCI-H647 | 1.02 | 0.896 | 0.993 | 0.924 |
| NCI-H650 | 0.955 | 0.916 | 0.962 | 0.849 |
